Measurements taken from PubChem BioAssay AID449753 (NMMLSC, 2010).
Active and inactive are the calls of the source.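 Rule for the calls: active = EC50 under 30000 nM from a falling dose curve whose fit quality and slope passed set checks; inactive = the rest.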

Test system: S. cerevisiae aged culture, superoxide DHE fluorescence, 7 d
Experiment: superoxide reduction in chronologically aged yeast, dose response, DHE fluorescence, primary hits (AID 449753)
Details: not given

**Q.** With `COc1ccc2nc3ccccc3nc2c1N` as the molecule, how does the EC50 read?
**A.** Its EC50 is 660 nM.

**Q.** With `CC(C)(C)Nc1ncnc2c1cnn2-c1ccccc1` as the molecule, how does the EC50 read?
**A.** The EC50 was 470 nM.

**Q.** Which EC50 does the source give for `Cc1ccc(-c2nn(C(C)(C)C)c3ncnc(N)c23)cc1` here?
**A.** The EC50 was 3030 nM.

**Q.** Which EC50 does the source give for `CCC(=Nc1ccccc1O)C1=C(O)CC(c2ccccc2)CC1=O` (stereo unspecified) here?
**A.** The EC50 was 1630 nM.

**Q.** Which EC50 does the source give for `CC(C)(C)n1nc(-c2ccc(Cl)cc2)c2c(N)ncnc21` here?
**A.** The EC50 was 4790 nM.

**Q.** Which EC50 does the source give for `[O-][n+]1c2ccccc2[n+]([O-])c2cc(O)ccc21` here?
**A.** Its EC50 is 940 nM.

**Q.** For `CC(C)OC(=O)c1ccc2nc3ccccc3nc2c1`, which EC50 is on record?
**A.** Its EC50 is 16700 nM.

**Q.** Which EC50 does the source give for `O=C1c2c(O)ccc(O)c2C(=O)c2c(NCCNCCO)ccc(NCCNCCO)c21` here?
**A.** Its EC50 is 5250 nM.

**Q.** Which EC50 does the source give for `COc1ccc2c3c(cccc13)N(C)N=C2C` here?
**A.** The EC50 was 7910 nM.

**Q.** For `c1ccc2[nH]c3cc4ncnc4cc3nc2c1`, which EC50 is on record?
**A.** The EC50 was 40 nM.

**Q.** For `CC(C)(C)n1nc(-c2ccc(F)cc2)c2c(N)ncnc21`, which EC50 is on record?
**A.** Its EC50 is 5170 nM.

**Q.** For `FC(F)(F)c1nc2cc3nc4ccccc4[nH]c3cc2n1`, which EC50 is on record?
**A.** The EC50 was 210 nM.

**Q.** Which EC50 does the source give for `c1ccc2nc3ccccc3nc2c1` here?
**A.** The EC50 was 440 nM.

**Q.** With `OCC[n+]1c2ccccc2nc2ccc(N3CCOCC3)cc21` as the molecule, how does the EC50 read?
**A.** Its EC50 is 3810 nM.

**Q.** Which EC50 does the source give for `C=C1C(O)[C@@H]2O[C@]3(CC[C@H](/C=C/C(C)[C@@H]4CC(C)=CC5(O[C@H](C[C@@](C)(O)C(=O)O)CCC5O)O4)O3)CC[C@H]2O[C@@H]1C(O)CC(C)[C@H]1OC2(CCCCO2)CCC1C` (stereo partly specified) here?
**A.** Its EC50 is 100 nM.

**Q.** Which EC50 does the source give for `CNc1ccc2nc3ccccc3[n+](C)c2c1` here?
**A.** Its EC50 is 10100 nM.

**Q.** With `C[C@]12CCC3C(CC[C@H]4C[C@H](O)CC[C@]34C)C1C[C@@H](CCCCl)[C@@H]2O` (stereo partly specified) as the molecule, how does the EC50 read?
**A.** The EC50 was 500 nM.

**Q.** For `CNC(=O)c1cccc2nc3ccccc3nc12`, which EC50 is on record?
**A.** The EC50 was 14500 nM.

**Q.** Which EC50 does the source give for `Cn1c(O)c(C(=Nc2ccc(F)cc2)c2ccccc2Cl)c(=O)n(C)c1=O` here?
**A.** Its EC50 is 3140 nM (inactive).

**Q.** Which EC50 does the source give for `C#CCSc1nnc(-c2ccc([N+](=O)[O-])cc2)o1` here?
**A.** Its EC50 is 4720 nM.

**Q.** For `C[C@]12CCC3C(CC[C@H]4C[C@H](O)CC[C@]34C)C1CCC2=O` (stereo partly specified), which EC50 is on record?
**A.** The EC50 was 630 nM.

**Q.** For `COC(=O)c1cccc2nc3c(C(C)O)cccc3nc12` (stereo unspecified), which EC50 is on record?
**A.** The EC50 was 1290 nM.

**Q.** Which EC50 does the source give for `Nc1cc2nc3ccccc3nc2cc1N` here?
**A.** The EC50 was 1850 nM.

**Q.** For `COc1ccc2c(c1)c1nnc(SC)nc1n2C`, which EC50 is on record?
**A.** Its EC50 is 3230 nM.

**Q.** For `C=CCSc1nnc(-c2ccc([N+](=O)[O-])cc2)o1`, which EC50 is on record?
**A.** The EC50 was 2900 nM.

Test system: not listed separately
Experiment: as above
Details: S. cerevisiae aged culture, superoxide DHE fluorescence, 7 d; at 30 µM (top of the series)

**Q.** Which percent response (superoxide), lower = inhibition does the source give for `C#C[C@]1(O)[C@H](O)CC2C3CC[C@H]4C[C@@H](O)CC[C@]4(C)C3CC[C@@]21C` (stereo partly specified) here?
**A.** Its percent response (superoxide), lower = inhibition is 87.4 (inactive).

**Q.** With `O=C(/C=C/c1cccs1)NC(=S)NNC(=O)Cc1cccs1` as the molecule, how does the percent response (superoxide), lower = inhibition read?
**A.** Its percent response (superoxide), lower = inhibition is 121 (inactive).

**Q.** With `O=C(Nc1cccc(Cl)c1)Nc1ccc2nccnc2c1` as the molecule, how does the percent response (superoxide), lower = inhibition read?
**A.** The percent response (superoxide), lower = inhibition was 87.1 (inactive).

**Q.** Which percent response (superoxide), lower = inhibition does the source give for `N#CCc1nn(-c2ccccc2)c2ncnc(N)c12` here?
**A.** Its percent response (superoxide), lower = inhibition is 96.7 (inactive).

**Q.** For `O=C(OCc1c(F)cccc1Cl)c1cnc2ccccc2n1`, which percent response (superoxide), lower = inhibition is on record?
**A.** Its percent response (superoxide), lower = inhibition is 117 (inactive).

**Q.** Which percent response (superoxide), lower = inhibition does the source give for `O=C(Nc1ccc2nc3ccccc3nc2c1)c1ccc(Br)cc1` here?
**A.** Its percent response (superoxide), lower = inhibition is 105 (inactive).

**Q.** With `O=c1[nH]c(O)c(C=Nc2ccc(F)c(Cl)c2)c(=O)[nH]1` as the molecule, how does the percent response (superoxide), lower = inhibition read?
**A.** Its percent response (superoxide), lower = inhibition is 107 (inactive).

**Q.** For `C=CCOn1c(=O)c(-c2cccs2)[n+]([O-])c2ccccc21`, which percent response (superoxide), lower = inhibition is on record?
**A.** Its percent response (superoxide), lower = inhibition is 104 (inactive).

**Q.** With `O=C(/C=C/c1ccccc1)NC(=S)NNC(=O)Cc1cccs1` as the molecule, how does the percent response (superoxide), lower = inhibition read?
**A.** Its percent response (superoxide), lower = inhibition is 83 (inactive).

**Q.** For `CCN(CC)C(=O)CSc1nnc(-c2cccc(OC)c2)o1`, which percent response (superoxide), lower = inhibition is on record?
**A.** Its percent response (superoxide), lower = inhibition is 92.6 (inactive).

**Q.** For `C[C@]12CCC3C(CC[C@H]4C[C@@H](O)CC[C@]34C)[C@H]1CC[C@H]2O` (stereo partly specified), which percent response (superoxide), lower = inhibition is on record?
**A.** Its percent response (superoxide), lower = inhibition is 64.7 (inactive).

**Q.** Which percent response (superoxide), lower = inhibition does the source give for `COc1ccc2nc3ccccc3nc2c1NC(=O)c1ccccc1Cl` here?
**A.** Its percent response (superoxide), lower = inhibition is 56.6 (inactive).

**Q.** For `CC(=O)[C@@]1(O)CCC2C3CC[C@H]4C[C@@H](O)CC[C@]4(C)C3CC[C@@]21C` (stereo partly specified), which percent response (superoxide), lower = inhibition is on record?
**A.** Its percent response (superoxide), lower = inhibition is 129 (inactive).

**Q.** Which percent response (superoxide), lower = inhibition does the source give for `C[C@]12CCC3C(CC[C@H]4C[C@@H](O)CC[C@]34C)C1CC[C@@H]2OC(=O)[C@H](N)CCCCN` (stereo partly specified) here?
**A.** Its percent response (superoxide), lower = inhibition is 71.9 (inactive).

**Q.** With `N#CC(c1nc2ccccc2nc1N1CCCC1)S(=O)(=O)c1ccccc1` (stereo unspecified) as the molecule, how does the percent response (superoxide), lower = inhibition read?
**A.** The percent response (superoxide), lower = inhibition was 98.7 (inactive).

**Q.** With `O=C(O)c1cnc2ccccc2n1` as the molecule, how does the percent response (superoxide), lower = inhibition read?
**A.** Its percent response (superoxide), lower = inhibition is 114 (inactive).

**Q.** With `CN(C)CCNc1ncnc2c1cnn2-c1ccc(Cl)cc1` as the molecule, how does the percent response (superoxide), lower = inhibition read?
**A.** The percent response (superoxide), lower = inhibition was 99.2 (inactive).

**Q.** Which percent response (superoxide), lower = inhibition does the source give for `CCc1nc(NC(C)(C)C)c2cnn(-c3ccccc3)c2n1` here?
**A.** The percent response (superoxide), lower = inhibition was 88 (inactive).

**Q.** Which percent response (superoxide), lower = inhibition does the source give for `CC(C)OC(=O)CSc1nnc(-c2ccc(Cl)cc2Cl)o1` here?
**A.** The percent response (superoxide), lower = inhibition was 112 (inactive).

**Q.** With `CC(=O)O[C@H]1CCC2C3CC[C@H]4[C@@H](O)[C@H](O)CC[C@]4(C)C3CC[C@@]21C` (stereo partly specified) as the molecule, how does the percent response (superoxide), lower = inhibition read?
**A.** Its percent response (superoxide), lower = inhibition is 90.2 (inactive).

**Q.** For `O=C(Nc1ccc2nc3ccccc3nc2c1)c1ccccc1`, which percent response (superoxide), lower = inhibition is on record?
**A.** Its percent response (superoxide), lower = inhibition is 57.7 (inactive).
